Reference: US11883538B2, “Sustained release compositions comprising micronized tolcapone” (Som Innovation Biotech, S.L., priority 2016, dated 2024)

Assay: Determination of tolcapone's particle size (laser analyzer MASTERSIZER 2000, Ph. Eur. 2.9.31)
Assay type: physicochemical
Conditions: wet dispersion in water for injection
Excerpt: Determination of Tolcapone's Particle Size
Particle size measurement (Dv,0.1, Dv,05, Dv,0.9 and Dv,1.0) may be determined according to the general method described in section 2.9.31 of the European Pharmacopeia in particular using a particle size laser analyzer MASTERSIZER 2000 from Malvern featuring a wet dispersion unit HYDRO 2000 SM for small volumes of sample.
Material: • Sample: Tolcapone suspension • Refraction index: 1.59 (default) • Dispersant: water for injection • Refraction index: 1.33
Cycles: • Measurements for each aliquot: 3 • Lag time: 12 s • Pump stirring velocity: 2500 rpm
Measuring Time: • Measure: 12 s (in triplicates) • Measure snaps: 12000 • Background: 10 s • Background snaps: 10000
Three readings are made for each sample.
Thus, Dv,0.9 lower than 54.33 μm that 90% of the volume of the particles is in particles which are smaller 54.33 μm.

SMILES | Dv,0.1 [μm] | Dv,0.5 [μm] | Dv,0.9 [μm] | Dv,1.0 [μm]
Cc1ccc(C(=O)c2cc(O)c(O)c([N+](=O)[O-])c2)cc1 [micronized tolcapone, (3,4-dihydroxy-5-nitrophenyl)(4-methylphenyl)methanone] | <6.09 | <17.62 | <54.33 | <316.23
Cc1ccc(C(=O)c2cc(O)c(O)c([N+](=O)[O-])c2)cc1 [non-micronized tolcapone, (3,4-dihydroxy-5-nitrophenyl)(4-methylphenyl)methanone] | <22.45 | <87.23 | <307.86 | <1096.48
